Results on two compounds are retold here after article PMC11022890 (Drug Metabolism and Disposition, 2021).

Data set [1] deals with T1, UGT2B7 (Homo sapiens, UniProt P16662).
T1 sequence (P16662 24-529): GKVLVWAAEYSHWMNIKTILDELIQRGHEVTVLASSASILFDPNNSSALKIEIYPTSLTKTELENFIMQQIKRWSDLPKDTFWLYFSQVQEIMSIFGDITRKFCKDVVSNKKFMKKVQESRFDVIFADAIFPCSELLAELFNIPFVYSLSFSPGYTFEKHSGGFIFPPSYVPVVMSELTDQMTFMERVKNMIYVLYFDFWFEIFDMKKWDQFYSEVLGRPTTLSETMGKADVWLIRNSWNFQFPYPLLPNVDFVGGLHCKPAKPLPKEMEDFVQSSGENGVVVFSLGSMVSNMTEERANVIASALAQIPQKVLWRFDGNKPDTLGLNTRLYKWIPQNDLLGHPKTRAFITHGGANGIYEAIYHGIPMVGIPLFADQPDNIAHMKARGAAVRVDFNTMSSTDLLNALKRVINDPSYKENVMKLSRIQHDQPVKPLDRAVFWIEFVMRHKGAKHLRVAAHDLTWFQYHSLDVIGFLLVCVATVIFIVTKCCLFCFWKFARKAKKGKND
Type of data set: in vitro ADME. Particulars: rUGT2B7 microsomes.

Data set [2] has as its target T2, UGT2B10 (Homo sapiens, UniProt P36537).
T2 sequence (P36537 24-528): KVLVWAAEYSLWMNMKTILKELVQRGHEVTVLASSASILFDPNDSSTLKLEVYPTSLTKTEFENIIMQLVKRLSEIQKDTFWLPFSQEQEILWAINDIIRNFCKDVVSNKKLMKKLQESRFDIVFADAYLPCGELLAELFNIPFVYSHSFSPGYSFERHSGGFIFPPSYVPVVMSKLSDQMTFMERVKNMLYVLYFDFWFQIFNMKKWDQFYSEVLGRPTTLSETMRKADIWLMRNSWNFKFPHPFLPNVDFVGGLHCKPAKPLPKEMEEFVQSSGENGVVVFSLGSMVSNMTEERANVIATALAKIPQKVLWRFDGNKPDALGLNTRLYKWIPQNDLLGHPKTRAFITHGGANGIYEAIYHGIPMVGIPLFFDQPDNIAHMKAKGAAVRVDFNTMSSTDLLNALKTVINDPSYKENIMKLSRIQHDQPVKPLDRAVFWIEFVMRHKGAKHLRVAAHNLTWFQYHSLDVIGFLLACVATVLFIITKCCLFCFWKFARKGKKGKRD
The experiment in a line: Screening: inhibition of nicotine glucuronidation in rUGT2B10 microsomes. Type of data set: in vitro ADME. Particulars: 100 µM.

Data set [3] in a line: Nonspecific binding. Type of data set: in vitro ADME. Particulars: human, incubation mixture with human kidney microsomes.
Data set [4] has as its target T3, UGT1A9 (Homo sapiens, UniProt O60656).
T3 sequence (O60656 26-530): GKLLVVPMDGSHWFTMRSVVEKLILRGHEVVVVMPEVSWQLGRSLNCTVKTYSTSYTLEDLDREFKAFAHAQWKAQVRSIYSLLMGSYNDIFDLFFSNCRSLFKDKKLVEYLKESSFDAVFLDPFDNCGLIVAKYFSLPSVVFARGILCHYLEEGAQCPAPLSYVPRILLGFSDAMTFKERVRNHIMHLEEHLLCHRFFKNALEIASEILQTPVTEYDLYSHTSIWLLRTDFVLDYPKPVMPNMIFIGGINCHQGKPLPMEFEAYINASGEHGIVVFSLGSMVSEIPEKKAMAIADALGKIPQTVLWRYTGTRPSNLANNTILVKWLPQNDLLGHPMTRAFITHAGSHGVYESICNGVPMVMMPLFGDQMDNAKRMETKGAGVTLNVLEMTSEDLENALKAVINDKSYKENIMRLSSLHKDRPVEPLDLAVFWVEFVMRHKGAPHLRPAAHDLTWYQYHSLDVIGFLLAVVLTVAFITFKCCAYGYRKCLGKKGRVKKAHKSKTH
The data set is described as follows: in vitro. Particulars: both, HLM.

Data set [5] is described as follows: Nonspecific binding. Type of data set: in vitro ADME. Particulars: human.
Data set [6] is described as follows: Nonspecific binding. Type of data set: in vitro ADME. Particulars: human, incubation mixture with human liver microsomes. (In general: Liver microsomes are vesicles of endoplasmic reticulum, rich in cytochrome P450 enzymes.)
For data set [7] the following is noted: 400 mg oral dose; ref Manini et al., 2015; cited from earlier work.
Data set [8] addresses T4, UGT1A6 in human kidney microsomes (Homo sapiens, UniProt P19224).
T4 sequence (P19224 27-532): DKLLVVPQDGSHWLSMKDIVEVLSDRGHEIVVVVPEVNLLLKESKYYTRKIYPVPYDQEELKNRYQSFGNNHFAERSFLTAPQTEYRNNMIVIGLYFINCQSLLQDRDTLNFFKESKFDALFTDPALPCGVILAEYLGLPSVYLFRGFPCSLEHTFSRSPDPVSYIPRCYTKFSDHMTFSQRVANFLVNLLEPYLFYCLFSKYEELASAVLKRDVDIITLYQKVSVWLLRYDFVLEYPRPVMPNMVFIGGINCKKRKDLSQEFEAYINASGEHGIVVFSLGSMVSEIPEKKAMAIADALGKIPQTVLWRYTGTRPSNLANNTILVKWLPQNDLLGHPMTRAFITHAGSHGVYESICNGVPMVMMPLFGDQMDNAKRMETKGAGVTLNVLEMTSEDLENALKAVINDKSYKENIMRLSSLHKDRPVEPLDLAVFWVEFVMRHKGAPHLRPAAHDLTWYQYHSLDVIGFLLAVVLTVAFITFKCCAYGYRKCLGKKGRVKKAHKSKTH
The data set is described as follows: Inhibition of serotonin glucuronidation. Particulars: HKM.

Data set [9] addresses T5, UGT1A6 in human liver microsomes (Homo sapiens, UniProt P19224).
T5 sequence (P19224 27-532): T4 sequence (P19224 27-532)
The experiment in a line: Inhibition of serotonin glucuronidation. Particulars: HLM.

[10] abbreviates: IC50, probe substrate acetaminophen.
Setting [11] is: IC50,u (binding-corrected IC50), probe substrate acetaminophen.
Where [12] appears, read: IC50, probe substrate serotonin.
The mark [13] stands for this setting: IC50,u (binding-corrected IC50), probe substrate serotonin.

What is called fraction unbound is free concentration divided by total concentration. As usually defined, the IC50 is the concentration at which inhibition is half-maximal. Low readings indicate greater potency, high ones weaker potency. As for `CCCCCc1cc(O)c2c(c1)OC(C)(C)c1ccc(C)cc1-2` [CBN, cannabinol], the “inhibition in screening (in words)” value in data set [1] (10 or 100 µM) is recorded as “significant inhibition”. Also, the “inhibition vs control without cannabinoid” value in [2] turned out to be 47%. Moreover, the values for the fraction unbound in data set [3], in data set [5] and in data set [6] were 0.12 ± 0.015, 0.085 ± 0.005 and 0.092 ± 0.006, respectively. Besides, the values for the half-inhibitory concentration (IC50) in data set [4] (setting [10]) and in data set [4] (setting [11]) were 34 ± 6.3 µM and 3.1 ± 0.58 µM, respectively.

For the compound `C=C(C)[C@@H]1CCC(C)=C[C@H]1c1c(O)cc(CCCCC)cc1O` [CBD, cannabidiol], the “inhibition vs control without cannabinoid” value in data set [1] (10 µM, zidovudine, screening) came out at 58%. In addition, in data set [7], the average plasma level is 181 µg/L. The IC50 in data set [8] (setting [12]) stood at 17 ± 3.7 µM; in data set [8] (setting [13]) it was 1 ± 0.23 µM; in data set [9] (setting [12]), 28 ± 6.5 µM; in [9] (setting [13]), 1.4 ± 0.33 µM; in [4] (setting [10]) it was 12 ± 3.2 µM; in data set [4] (setting [11]), 0.64 ± 0.16 µM.
